The supplement of paper PMC10307832

Compound: CCN1CCC(CC1)N2C=C(N=N2)CNC3=CC4=C(C(=CN=C4C(=C3)Cl)C#N)NC5=CC(=C(C=C5)F)Cl [KIN001-266]
Assay: relative viability (nuclei count vs DMSO), 5 days (fraction); higher = more cells survive
In short: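 Lung cancer cell lines received five library-drug doses (not always all listed) spaced by √10, pinned on vehicle-anchored 1536-well plates after an overnight stay at 37 °C. Five days later, with no medium change, nuclei were Hoechst-stained, imaged at 4× and counted with MetaXpress. Viability is treated-well nuclei relative to vehicle-well nuclei, as a median across plates. Passing plates had control CV below 25% and at least one doubling.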

Row | Cell Line | relative viability (0.08 µM) | relative viability (0.253 µM) | relative viability (0.8 µM) | relative viability (2.53 µM) | relative viability (8 µM)
1 | COR-L 105 | 0.942 | 0.967 | 0.963 | 1 | 0.902
2 | LK-2 | 1.14 | 0.885 | 1.2 | 0.969 | 1.12
3 | NCI-H727 | 1.03 | 0.966 | 0.843 | 0.904 | 0.656
4 | RERF-LC-KJ | 1.05 | 1.04 | 0.975 | 0.992 | 0.726
5 | NCI-H2023 | 0.915 | 0.997 | 1.15 | 0.926 | 0.94
6 | NCI-H322M | 1.04 | 1 | 0.928 | 0.785 | 0.779
7 | NCI-H1666 | 1.07 | 1 | 0.896 | 0.99 | 0.959
8 | NCI-H1648 | 0.853 | 0.859 | 0.893 | 0.823 | 0.966
9 | NCI-H2087 | 0.957 | 1.03 | 0.94 | 1.06 | 0.786
10 | LU99A | 0.985 | 0.952 | 0.958 | 0.847 | 0.849
11 | HCC-366 | 1.02 | 1.01 | 0.992 | 1.01 | 0.969
12 | EKVX | 0.989 | 1 | 0.841 | 0.868 | 0.941
13 | NCI-H522 | 1.13 | 0.937 | 1.05 | 0.925 | 0.914
14 | NCI-H1755 | 0.968 | 0.994 | 0.995 | 0.975 | 0.96
15 | NCI-H647 | 1.03 | 1.01 | 1.11 | 0.94 | 0.942
16 | LC-2-ad | 1.05 | 0.997 | 0.947 | 1.04 | 0.962
17 | NCI-H1793 | 1.04 | 0.865 | 0.617 | 0.787 | 0.606
18 | HCC-827 | 1.03 | 1.05 | 0.715 | 1.08 | 0.98
19 | HCC-78 | 0.964 | 0.998 | 0.913 | 0.99 | 0.956
20 | NCI-H2085 | 1 | 1.04 | 0.865 | 0.973 | 0.777
21 | PC-14 | 0.933 | 1.07 | 0.84 | 0.885 | 0.485
22 | NCI-H2342 | 1.02 | 0.971 | 0.958 | 0.965 | 1.1
23 | A-427 | 1.04 | 1.06 | 1.05 | 0.928 | 0.953
24 | H3255 | 1.01 | 1.06 | 0.96 | 0.96 | 0.78
25 | HCC-44 | 0.967 | 0.994 | 0.983 | 0.968 | 1.08
26 | NCI-H1734 | 1.01 | 1.01 | 1.08 | 0.858 | 0.855

Row | Cell Line | relative viability (0.08 µM) | relative viability (0.253 µM) | relative viability (0.8 µM) | relative viability (2.53 µM) | relative viability (8 µM)
27 | NCI-H2228 | 1.03 | 1.02 | 1.02 | 0.903 | 0.808
28 | ABC-1 | 1.03 | 1.11 | 1.12 | 0.959 | 0.774
29 | COR-L23 | 1 | 0.984 | 1.02 | 0.983 | 0.828
30 | NCI-H661 | 0.956 | 0.997 | 1.01 | 0.958 | 1.01
31 | NCI-H1993 | 0.971 | 0.916 | 0.815 | 0.81 | 0.724
32 | NCI-H1437 | 0.976 | 0.988 | 1.02 | 0.994 | 0.883
33 | UMC-11 | 0.975 | 0.981 | 1 | 0.918 | 0.857
34 | 201T | 1.02 | 1 | 0.959 | 0.995 | 0.956
35 | NCI-H358 | 0.893 | 0.98 | 0.917 | 0.828 | 0.45
36 | ChaGo-K-1 | 1.04 | 1.03 | 0.92 | 0.929 | 0.886
37 | NCI-H1650 | 0.964 | 1.01 | 0.895 | 0.805 | 0.464
38 | LOU-NH91 | 1.07 | 1.04 | 0.737 | 0.85 | 0.845
39 | HOP-62 | 1.01 | 1.05 | 1.02 | 1.02 | 0.995
40 | NCI-H1915 | 1.02 | 0.971 | 0.982 | 1.07 | 0.935
41 | NCI-H3122 | 0.967 | 1.02 | 1.01 | 0.919 | 0.95
42 | NCI-H1651 | 0.955 | 1.01 | 0.957 | 1.01 | 0.96
43 | EBC-1 | 1.04 | 1.02 | 0.954 | 0.988 | 0.704
44 | NCI-H838 | 0.935 | 0.967 | 0.961 | 0.949 | 0.829
45 | NCI-H596 | 1.09 | 0.938 | 0.878 | 0.987 | 0.866
46 | SK-LU-1 | 1.09 | 1 | 0.987 | 0.886 | 0.709
47 | NCI-H441 | 1.11 | 1.07 | 1.1 | 0.939 | 0.789
48 | NCI-H650 | 1.03 | 0.972 | 1.13 | 0.955 | 1.15
49 | SK-MES-1 | 1.02 | 1.02 | 0.992 | 0.942 | 0.783
50 | NCI-H1792 | 0.987 | 0.919 | 0.856 | 0.908 | 1.01
51 | NCI-H1355 | 0.986 | 1.02 | 0.979 | 0.924 | 0.908
52 | SW 1573 | 1.07 | 0.899 | 1.04 | 0.924 | 0.689

Row | Cell Line | relative viability (0.08 µM) | relative viability (0.253 µM) | relative viability (0.8 µM) | relative viability (2.53 µM) | relative viability (8 µM)
53 | A549 | 1.02 | 0.974 | 1.03 | 0.891 | 0.939
54 | NCI-H2347 | 1.04 | 1 | 1 | 0.989 | 0.582
55 | LCLC-97TM1 | 0.942 | 0.853 | 0.917 | 0.866 | 0.906
56 | EMC-BAC-2 | 1.07 | 1.21 | 0.98 | 1.07 | 0.989
57 | NCI-H1975 | 0.989 | 0.97 | 0.966 | 1.03 | 0.965
58 | BEN | 0.991 | 0.931 | 1.06 | 0.864 | 0.996
59 | SW 900 | 1.02 | 0.873 | 0.777 | 0.848 | 0.624
60 | NCI-H1703 | 1.06 | 0.873 | 0.954 | 0.789 | 0.806
61 | NCI-H23 | 1.01 | 1.03 | 0.935 | 0.917 | 0.858
62 | NCI-H520 | 1.01 | 1.05 | 1.08 | 0.943 | 1.01
63 | CAL-12T | 1.07 | 0.965 | 0.956 | 1.09 | 0.994
64 | EPLC-272H | 1.08 | 1 | 0.915 | 0.893 | 0.686
65 | LCLC-103H | 1.08 | 1.04 | 1.08 | 1.06 | 1.02
66 | NCI-H2405 | 1.03 | 1.02 | 0.977 | 0.958 | 0.821
67 | HCC-15 | 1.02 | 1.03 | 0.875 | 0.868 | 0.689
68 | PC-3 [JPC-3] | 1 | 1.06 | 0.916 | 1.03 | 0.859
69 | NCI-H1944 | 1.07 | 0.972 | 0.919 | 1.02 | 0.974
70 | HARA | 0.959 | 1.04 | 0.937 | 1.06 | 0.747
71 | NCI-H1563 | 0.958 | 1 | 1.02 | 1.04 | 0.972
72 | NCI-H2126 | 1.01 | 1.03 | 0.978 | 0.925 | 0.975
73 | LXF-289 | 0.949 | 0.984 | 1 | 1 | 1.06
74 | NCI-H460 | 1.01 | 1.01 | 0.967 | 0.951 | 1.02
75 | NCI-H1395 | 0.948 | 0.974 | 1.14 | 0.892 | 0.844
76 | NCI-H2170 | 1 | 0.995 | 0.979 | 0.935 | 1.01
77 | NCI-H2009 | 0.988 | 1.06 | 1 | 0.982 | 0.856
